Results published in ChEMBL document CHEMBL1201862, “PubChem BioAssay data set” (2004).
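Briefly, cells in 96-well plates were exposed to five compound concentrations for 48 h, and endpoints were estimated by linear interpolation. GI50 = concentration required for 50% inhibition of growth.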 The source made the active and inactive calls. No stated cut-off is given here; in the data, active = GI50 up to about 1.1 µM and inactive = higher.

What was measured:
Test in all cases: inhibition of tumour cell growth, NCI panel, 48 h
786-0 = test system: 786-0
A498 = test system: A498
A549 = test system: A549
ACHN = test system: ACHN
BT-549 = test system: BT-549
CAKI-1 = test system: CAKI-1
CCRF-CEM = test system: CCRF-CEM
COLO 205 = test system: COLO 205
DU-145 = test system: DU-145
EKVX = test system: EKVX
HCC 2998 = test system: HCC 2998
HCT-116 = test system: HCT-116
HCT-15 = test system: HCT-15
HL-60 = test system: HL-60
HOP-62 = test system: HOP-62
HOP-92 = test system: HOP-92
Hs-578T = test system: Hs-578T
IGROV-1 = test system: IGROV-1
K562 = test system: K562
KM12 = test system: KM12
LOX IMVI = test system: LOX IMVI
M14 = test system: M14
MCF7 = test system: MCF7
MDA-MB-231 = test system: MDA-MB-231
MDA-MB-435 = test system: MDA-MB-435
MDA-N = test system: MDA-N
Malme-3M = test system: Malme-3M
NCI-H226 = test system: NCI-H226
NCI-H23 = test system: NCI-H23
NCI-H522 = test system: NCI-H522
NCI/ADR-RES = test system: NCI/ADR-RES
OVCAR-3 = test system: OVCAR-3
OVCAR-4 = test system: OVCAR-4
OVCAR-5 = test system: OVCAR-5
OVCAR-8 = test system: OVCAR-8
PC-3 = test system: PC-3
RPMI-8226 = test system: RPMI-8226
RXF 393 = test system: RXF 393
SF-268 = test system: SF-268
SF-295 = test system: SF-295
SF-539 = test system: SF-539
SK-MEL-28 = test system: SK-MEL-28
SK-MEL-2 = test system: SK-MEL-2
SK-MEL-5 = test system: SK-MEL-5
SN12C = test system: SN12C
SNB-19 = test system: SNB-19
SR = test system: SR
SW-620 = test system: SW-620
T47D = test system: T47D
TK-10 = test system: TK-10
U-251 = test system: U-251
UACC-257 = test system: UACC-257
UACC-62 = test system: UACC-62
UO-31 = test system: UO-31
HT-29 = test system: HT-29
MOLT-4 = test system: MOLT-4
NCI-H460 = test system: NCI-H460
SK-OV-3 = test system: SK-OV-3

In the case of `c1ccc(COc2ncccc2C2SCCCS2)cc1`, the GI50 (786-0) is reported as > 100 µM (inactive), the GI50 (A498) is reported as > 100 µM (inactive) and the GI50 (A549) is reported as > 100 µM (inactive). The GI50 (ACHN) was > 100 µM (inactive), the GI50 (BT-549) was > 100 µM (inactive) and the GI50 (CAKI-1) was > 100 µM (inactive). The GI50 (CCRF-CEM) was > 100 µM (inactive), the GI50 (COLO 205) was > 100 µM (inactive) and the GI50 (DU-145) was > 100 µM (inactive). The GI50 (EKVX) was > 100 µM (inactive), the GI50 (HCC 2998) was > 100 µM (inactive) and the GI50 (HCT-116) was > 100 µM (inactive). For the same compound, the GI50 (HCT-15) was greater than 100 µM, the GI50 (HL-60) was > 10 µM (inactive) and the GI50 (HOP-62) was > 100 µM (inactive). For the same compound, the GI50 (HOP-92) was > 100 µM (inactive), the GI50 (Hs-578T) was > 100 µM (inactive) and the GI50 (IGROV-1) was > 100 µM (inactive). For the same compound, the GI50 (K562) was 96.4 µM (inactive), the GI50 (KM12) was > 100 µM (inactive) and the GI50 (LOX IMVI) was 82.4 µM (inactive). For the same compound, the GI50 (M14) was > 100 µM (inactive), the GI50 (MCF7) was 84.3 µM (inactive) and the GI50 (MDA-MB-231) was > 100 µM (inactive). For the same compound, the GI50 (MDA-MB-435) was > 100 µM (inactive), the GI50 (MDA-N) was > 100 µM (inactive) and the GI50 (Malme-3M) was > 100 µM (inactive). For the same compound, the GI50 (NCI-H226) was > 100 µM (inactive), the GI50 (NCI-H23) was > 100 µM (inactive) and the GI50 (NCI-H522) was > 100 µM (inactive). The GI50 (NCI/ADR-RES) was > 100 µM (inactive), the GI50 (OVCAR-3) was > 100 µM (inactive) and the GI50 (OVCAR-4) was > 100 µM (inactive). The GI50 (OVCAR-5) was > 100 µM (inactive), the GI50 (OVCAR-8) was > 100 µM (inactive) and the GI50 (PC-3) was > 100 µM (inactive). The GI50 (RPMI-8226) was > 100 µM (inactive), the GI50 (RXF 393) was 66.8 µM (inactive) and the GI50 (SF-268) was > 100 µM (inactive). For the same compound, the GI50 (SF-295) was > 100 µM (inactive), the GI50 (SF-539) was 67.3 µM (inactive) and the GI50 (SK-MEL-28) was > 100 µM (inactive). The GI50 (SK-MEL-2) was > 100 µM (inactive), the GI50 (SK-MEL-5) was > 100 µM (inactive) and the GI50 (SN12C) was > 100 µM (inactive). The GI50 (SNB-19) was > 100 µM (inactive), the GI50 (SR) was 70 µM (inactive) and the GI50 (SW-620) was > 100 µM (inactive). For the same compound, the GI50 (T47D) was 32.9 µM (inactive), the GI50 (TK-10) was > 100 µM (inactive) and the GI50 (U-251) was > 100 µM (inactive). The GI50 (UACC-257) was > 100 µM (inactive), the GI50 (UACC-62) was > 100 µM (inactive) and the GI50 (UO-31) was > 100 µM (inactive).

`COc1ccc2c(c1)C1=NCCN(C)c3ccc([N+](=O)[O-])c(c31)N2` was tested, and the GI50 (786-0) was 0.43 µM (active), the GI50 (A498) was 1.61 µM (inactive) and the GI50 (A549) was 0.525 µM (active). For the same compound, the GI50 (ACHN) was 0.465 µM (active), the GI50 (BT-549) was 2.91 µM (inactive) and the GI50 (CAKI-1) was 0.698 µM (active). The GI50 (CCRF-CEM) was 5.73 µM (inactive), the GI50 (COLO 205) was 0.533 µM (active) and the GI50 (DU-145) was 1.02 µM (active). The GI50 (EKVX) was 1.56 µM (inactive), the GI50 (HCC 2998) was 1.26 µM (inactive) and the GI50 (HCT-116) was 0.312 µM (active). For the same compound, the GI50 (HCT-15) was 0.46 µM, the GI50 (HL-60) was 3.16 µM (inactive) and the GI50 (HOP-62) was 0.785 µM (active). The GI50 (HOP-92) was 1.4 µM (inactive), the GI50 (HT-29) was 0.573 µM (active) and the GI50 (Hs-578T) was 1.66 µM (inactive). For the same compound, the GI50 (IGROV-1) was 1.41 µM (inactive), the GI50 (K562) was 12.2 µM (inactive) and the GI50 (KM12) was 1.21 µM (inactive). The GI50 (LOX IMVI) was 0.431 µM (active), the GI50 (M14) was 1 µM (active) and the GI50 (MCF7) was 1.15 µM (inactive). For the same compound, the GI50 (MDA-MB-231) was 0.565 µM (active), the GI50 (MDA-MB-435) was 0.748 µM (active) and the GI50 (MDA-N) was 0.546 µM (active). The GI50 (MOLT-4) was 0.705 µM (active), the GI50 (Malme-3M) was 1.04 µM (active) and the GI50 (NCI-H226) was 0.502 µM (active). For the same compound, the GI50 (NCI-H23) was 0.891 µM (active), the GI50 (NCI-H460) was 0.271 µM (active) and the GI50 (NCI-H522) was 0.635 µM (active). For the same compound, the GI50 (NCI/ADR-RES) was 0.665 µM (active), the GI50 (OVCAR-3) was 1.36 µM (inactive) and the GI50 (OVCAR-4) was 0.685 µM (active). For the same compound, the GI50 (OVCAR-5) was 2.19 µM (inactive), the GI50 (OVCAR-8) was 0.9 µM (active) and the GI50 (PC-3) was 0.583 µM (active). The GI50 (RXF 393) was 0.277 µM (active), the GI50 (SF-268) was 0.731 µM (active) and the GI50 (SF-295) was 1.02 µM (active). The GI50 (SF-539) was 0.423 µM (active), the GI50 (SK-MEL-28) was 2.55 µM (inactive) and the GI50 (SK-MEL-5) was 1.45 µM (inactive). The GI50 (SK-OV-3) was 2.23 µM (inactive), the GI50 (SN12C) was 0.796 µM (active) and the GI50 (SNB-19) was 0.652 µM (active). The GI50 (SR) was 2.88 µM (inactive), the GI50 (SW-620) was 0.415 µM (active) and the GI50 (T47D) was 2.66 µM (inactive). The GI50 (TK-10) was 2.86 µM (inactive), the GI50 (U-251) was 1.34 µM (inactive) and the GI50 (UACC-257) was 2.54 µM (inactive). The GI50 (UACC-62) was 1.1 µM (active) and the GI50 (UO-31) was 0.555 µM (active).
